Here are results for 1 molecule from ChEMBL document CHEMBL1201862, “PubChem BioAssay data set” (2004).

Active and inactive are the calls of the source.

Holding throughout (format): functional
The target in test [1] is Serine/threonine-protein kinase MRCK alpha (Homo sapiens, UniProt Q5VT25).
For test [2], the target named is Casein kinase II subunit alpha (Homo sapiens, UniProt P68400).
In test [3] the target is 5'-AMP-activated protein kinase catalytic subunit alpha-1 (Homo sapiens, UniProt Q13131).
Test [4] has as its target Calcium/calmodulin-dependent protein kinase type 1 (Homo sapiens, UniProt Q14012).
For test [5], the target named is Ribosomal protein S6 kinase alpha-3 (Homo sapiens, UniProt P51812).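 Also: measured within a kinome-wide profiling panel.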
Test [6] addresses Inhibitor of nuclear factor kappa-B kinase subunit beta (Homo sapiens, UniProt O14920).
Test [7] has as its target cAMP-dependent protein kinase catalytic subunit alpha (Homo sapiens, UniProt P17612).

Sequence of Serine/threonine-protein kinase MRCK alpha (Q5VT25 whole entry): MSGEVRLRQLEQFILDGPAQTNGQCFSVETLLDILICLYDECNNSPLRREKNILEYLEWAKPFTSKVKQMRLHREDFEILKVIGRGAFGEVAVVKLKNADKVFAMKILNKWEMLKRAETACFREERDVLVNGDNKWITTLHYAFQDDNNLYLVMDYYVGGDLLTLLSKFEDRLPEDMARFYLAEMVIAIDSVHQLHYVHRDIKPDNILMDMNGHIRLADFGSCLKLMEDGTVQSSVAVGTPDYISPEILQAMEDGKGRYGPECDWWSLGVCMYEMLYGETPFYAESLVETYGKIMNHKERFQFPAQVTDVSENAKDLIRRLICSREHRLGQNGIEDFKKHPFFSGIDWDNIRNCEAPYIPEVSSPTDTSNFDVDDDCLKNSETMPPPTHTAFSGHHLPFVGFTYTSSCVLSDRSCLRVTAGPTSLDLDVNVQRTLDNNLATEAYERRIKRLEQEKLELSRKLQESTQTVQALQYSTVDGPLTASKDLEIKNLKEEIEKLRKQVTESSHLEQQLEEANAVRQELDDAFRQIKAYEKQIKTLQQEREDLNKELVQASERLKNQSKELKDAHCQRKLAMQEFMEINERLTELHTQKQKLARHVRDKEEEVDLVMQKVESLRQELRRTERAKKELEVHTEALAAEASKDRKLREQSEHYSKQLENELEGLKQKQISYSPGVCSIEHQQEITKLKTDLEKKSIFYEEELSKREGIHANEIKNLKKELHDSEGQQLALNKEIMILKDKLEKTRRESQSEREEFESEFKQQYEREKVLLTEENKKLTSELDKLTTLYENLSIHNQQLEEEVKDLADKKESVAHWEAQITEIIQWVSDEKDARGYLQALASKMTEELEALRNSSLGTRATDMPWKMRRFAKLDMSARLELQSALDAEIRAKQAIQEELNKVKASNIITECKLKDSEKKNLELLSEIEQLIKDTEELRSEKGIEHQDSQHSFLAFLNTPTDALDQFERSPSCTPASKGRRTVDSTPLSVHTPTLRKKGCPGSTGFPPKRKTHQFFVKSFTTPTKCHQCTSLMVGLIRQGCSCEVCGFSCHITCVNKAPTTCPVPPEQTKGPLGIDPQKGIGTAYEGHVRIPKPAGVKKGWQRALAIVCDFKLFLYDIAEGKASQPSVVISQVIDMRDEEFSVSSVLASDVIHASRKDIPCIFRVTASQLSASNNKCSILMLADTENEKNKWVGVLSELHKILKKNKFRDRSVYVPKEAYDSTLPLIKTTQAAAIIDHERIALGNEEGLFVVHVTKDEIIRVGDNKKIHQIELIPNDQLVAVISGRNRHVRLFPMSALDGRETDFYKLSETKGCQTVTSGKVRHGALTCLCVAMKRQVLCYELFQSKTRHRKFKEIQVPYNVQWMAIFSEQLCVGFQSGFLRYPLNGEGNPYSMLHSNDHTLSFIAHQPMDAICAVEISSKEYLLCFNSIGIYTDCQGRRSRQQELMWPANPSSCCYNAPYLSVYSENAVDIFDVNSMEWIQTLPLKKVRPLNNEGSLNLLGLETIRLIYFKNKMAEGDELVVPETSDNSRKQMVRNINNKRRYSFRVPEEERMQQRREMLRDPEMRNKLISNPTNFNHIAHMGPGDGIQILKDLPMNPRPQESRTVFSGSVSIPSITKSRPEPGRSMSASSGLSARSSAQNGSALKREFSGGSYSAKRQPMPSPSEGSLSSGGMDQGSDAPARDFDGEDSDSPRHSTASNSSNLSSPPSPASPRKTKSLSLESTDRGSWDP
Sequence of Inhibitor of nuclear factor kappa-B kinase subunit beta (O14920 whole entry): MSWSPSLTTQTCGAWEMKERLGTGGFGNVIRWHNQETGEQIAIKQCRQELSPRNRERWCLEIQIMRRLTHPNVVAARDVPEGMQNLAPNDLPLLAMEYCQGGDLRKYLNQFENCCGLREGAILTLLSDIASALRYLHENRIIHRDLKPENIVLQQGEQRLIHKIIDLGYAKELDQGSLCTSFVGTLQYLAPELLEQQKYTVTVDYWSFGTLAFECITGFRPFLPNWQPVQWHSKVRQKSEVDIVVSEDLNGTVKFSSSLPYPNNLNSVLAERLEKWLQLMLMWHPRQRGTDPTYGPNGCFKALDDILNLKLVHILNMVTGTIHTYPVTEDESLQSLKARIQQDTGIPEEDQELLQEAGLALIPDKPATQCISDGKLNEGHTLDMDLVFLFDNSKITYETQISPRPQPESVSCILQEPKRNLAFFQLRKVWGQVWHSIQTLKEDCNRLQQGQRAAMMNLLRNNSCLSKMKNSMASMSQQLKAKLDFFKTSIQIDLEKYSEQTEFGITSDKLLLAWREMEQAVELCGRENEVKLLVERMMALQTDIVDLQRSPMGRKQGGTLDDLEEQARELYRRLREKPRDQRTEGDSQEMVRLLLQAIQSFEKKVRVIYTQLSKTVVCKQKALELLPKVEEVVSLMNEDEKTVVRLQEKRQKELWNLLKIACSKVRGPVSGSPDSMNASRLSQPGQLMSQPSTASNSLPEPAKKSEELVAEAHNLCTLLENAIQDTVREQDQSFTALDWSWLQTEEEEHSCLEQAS
Sequence of Calcium/calmodulin-dependent protein kinase type 1 (Q14012 whole entry): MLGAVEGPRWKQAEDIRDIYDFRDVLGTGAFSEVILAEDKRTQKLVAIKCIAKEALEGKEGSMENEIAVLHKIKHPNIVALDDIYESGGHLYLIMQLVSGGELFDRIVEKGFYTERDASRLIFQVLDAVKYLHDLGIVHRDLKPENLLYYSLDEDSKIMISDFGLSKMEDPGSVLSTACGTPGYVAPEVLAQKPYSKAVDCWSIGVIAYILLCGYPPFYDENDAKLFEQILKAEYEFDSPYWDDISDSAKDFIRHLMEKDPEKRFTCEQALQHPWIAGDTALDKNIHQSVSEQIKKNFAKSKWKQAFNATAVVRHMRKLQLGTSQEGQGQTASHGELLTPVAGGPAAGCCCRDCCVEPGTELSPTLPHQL
Sequence of Ribosomal protein S6 kinase alpha-3 (P51812 whole entry): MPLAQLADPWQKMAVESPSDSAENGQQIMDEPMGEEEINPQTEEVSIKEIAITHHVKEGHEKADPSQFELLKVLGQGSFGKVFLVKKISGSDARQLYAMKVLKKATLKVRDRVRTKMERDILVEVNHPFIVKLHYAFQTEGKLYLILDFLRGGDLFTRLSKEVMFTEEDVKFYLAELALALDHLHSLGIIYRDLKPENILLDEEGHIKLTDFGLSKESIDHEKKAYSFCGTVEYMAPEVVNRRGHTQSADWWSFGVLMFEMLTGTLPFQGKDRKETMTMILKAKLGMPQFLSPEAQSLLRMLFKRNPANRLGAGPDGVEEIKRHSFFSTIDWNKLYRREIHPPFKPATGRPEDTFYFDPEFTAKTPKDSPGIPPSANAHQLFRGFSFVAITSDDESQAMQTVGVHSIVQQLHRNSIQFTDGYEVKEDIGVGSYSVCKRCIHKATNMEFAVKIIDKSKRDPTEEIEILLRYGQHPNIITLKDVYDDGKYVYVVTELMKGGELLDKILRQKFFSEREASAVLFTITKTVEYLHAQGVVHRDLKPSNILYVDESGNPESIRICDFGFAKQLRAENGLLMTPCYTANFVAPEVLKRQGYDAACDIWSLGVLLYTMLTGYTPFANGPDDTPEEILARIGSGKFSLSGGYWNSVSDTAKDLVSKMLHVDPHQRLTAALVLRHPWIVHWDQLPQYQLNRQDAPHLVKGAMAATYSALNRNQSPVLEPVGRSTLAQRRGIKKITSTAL
Sequence of Casein kinase II subunit alpha (P68400 whole entry): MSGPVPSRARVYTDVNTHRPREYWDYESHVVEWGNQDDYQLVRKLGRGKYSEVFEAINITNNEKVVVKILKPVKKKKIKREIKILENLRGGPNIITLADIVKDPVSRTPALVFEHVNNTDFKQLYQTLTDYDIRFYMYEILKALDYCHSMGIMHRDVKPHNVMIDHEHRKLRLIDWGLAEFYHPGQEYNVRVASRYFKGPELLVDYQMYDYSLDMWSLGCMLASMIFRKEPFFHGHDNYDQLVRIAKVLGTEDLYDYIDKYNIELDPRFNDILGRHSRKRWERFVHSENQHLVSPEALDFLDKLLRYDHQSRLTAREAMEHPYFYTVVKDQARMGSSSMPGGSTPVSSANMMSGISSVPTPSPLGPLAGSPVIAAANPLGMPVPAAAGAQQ
Sequence of 5'-AMP-activated protein kinase catalytic subunit alpha-1 (Q13131 whole entry): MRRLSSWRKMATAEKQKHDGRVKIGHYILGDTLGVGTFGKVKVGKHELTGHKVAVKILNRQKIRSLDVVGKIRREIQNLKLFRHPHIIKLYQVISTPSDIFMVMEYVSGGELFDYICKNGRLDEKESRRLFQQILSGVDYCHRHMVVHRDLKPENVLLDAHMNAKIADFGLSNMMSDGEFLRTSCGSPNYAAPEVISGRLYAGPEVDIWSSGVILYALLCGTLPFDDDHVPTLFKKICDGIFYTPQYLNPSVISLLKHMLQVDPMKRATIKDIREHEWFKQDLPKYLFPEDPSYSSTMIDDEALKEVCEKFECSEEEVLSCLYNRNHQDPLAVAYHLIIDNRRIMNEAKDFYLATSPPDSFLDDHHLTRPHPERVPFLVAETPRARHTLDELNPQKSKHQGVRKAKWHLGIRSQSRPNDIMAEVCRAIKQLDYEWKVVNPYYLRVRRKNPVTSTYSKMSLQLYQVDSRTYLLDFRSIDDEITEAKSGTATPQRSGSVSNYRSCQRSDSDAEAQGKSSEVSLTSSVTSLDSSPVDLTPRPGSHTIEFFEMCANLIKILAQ

For orientation: Ki means the equilibrium dissociation constant of an inhibitor or competing ligand from its target. In the case of `NCCn1cc(-c2cc(-c3cc4ccccc4s3)c3[nH]ncc3c2)c2nc(N)ncc21`, the Ki was 3.16 µM (active) in test [1]; > 6.31 µM (inactive) in test [2]; 398 nM (active) in test [3]; > 7.94 µM (inactive) in test [4]; 3.16 µM (active) in test [5]; 251 nM (active) in test [6]. Also, the Ki in test [7] is 50.1 nM (active).
